The results in this text go back to PubChem BioAssay AID2202557 (NIEHS Division of Translational Toxicology (DTT)).

Active and inactive are the calls of the source. How the calls were made is not given here.

The data set concerns in vitro micronucleus assay, mammalian cells. Put plainly: In vitro micronucleus assay, summary data.
On to `NCP(=O)(O)O`, for which the outcome was “inactive; negative”. Then `c1cc[n+]2c(c1)-c1cccc[n+]1CC2`, with “active; positive”.

Regarding `CCOC(=O)C1=C[C@]2(CC)CCCN3CCc4c(n1c1ccccc41)[C@@H]32`, the outcome was “active; positive”. Turning to `CCCCCCOc1ccc(O)cc1`, the outcome was “active; positive”. Then `CCc1cccc(C)c1N(C(=O)CCl)C(C)COC` (stereo unspecified), with “active; positive”; and `[Cl][In]([Cl])[Cl]`, with “active; positive”.
